In PubChem BioAssay (NCI) one finds TGI and GI50 data, which are given here for eleven molecules.

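A five-concentration, 48-hour dose response in 96-well plates underlies each endpoint, interpolated linearly between surrounding concentrations. GI50 = concentration required for 50% inhibition of growth. The concentration for full growth arrest is given as TGI.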 Some results are limits rather than exact numbers.

Test systems include HCT-116 colon; PC-3 prostate; SF-268 CNS; NCI-H460 lung; IGROV1 ovarian; UACC-62 melanoma; TK-10 renal; UO-31 renal; SK-MEL-28 melanoma; CAKI-1 renal.
Common to all, as to test: NCI tumour cell line growth inhibition, 48 h

Consider `CC(C)CCc1c(Cl)nc(Cl)nc1Cl`, for which the TGI in the experiment with HCT-116 colon was 9.3 µM; in the experiment on PC-3 prostate it was above 100 µM; in the experiment with SF-268 CNS it was above 100 µM; in the experiment on NCI-H460 lung, 39.7 µM; with IGROV1 ovarian it was 37.5 µM; in the experiment on UACC-62 melanoma, 24.7 µM. Also, the TGI in the experiment on TK-10 renal is 35.5 µM; in the experiment with UO-31 renal it was 35.3 µM.
For the molecule `Clc1nc(Cl)c(Cc2ccccc2)c(Cl)n1`, the TGI with HCT-116 colon stood at 4.73 µM; in the experiment with PC-3 prostate, 44.5 µM; with SK-MEL-28 melanoma, 26.6 µM; in the experiment with SF-268 CNS, 57.7 µM; with IGROV1 ovarian, 46.7 µM; in the experiment on UACC-62 melanoma it was 16.9 µM. In addition, the TGI in the experiment with TK-10 renal was 32.2 µM; in the experiment with UO-31 renal, 33.2 µM.
As for `COc1cc(/C=C2/C(=O)NC(Cc3cc(OC)c(OC)c(C)c3OC)C(=O)N2Cc2ccccc2)c(OC)c(C)c1OC` (stereo unspecified), the TGI with HCT-116 colon, with SK-MEL-28 melanoma, in the experiment on SF-268 CNS, with NCI-H460 lung, with IGROV1 ovarian and with UACC-62 melanoma was above 100 µM each time. The TGI in the experiment with TK-10 renal, in the experiment on UO-31 renal and in the experiment on CAKI-1 renal was above 100 µM in each case.
In the case of `Cc1ccc(C2=C(c3ccccc3)C(Br)(c3ccccc3)C(c3ccccc3)=C2c2ccc(C)cc2)cc1`, the TGI in the experiment on HCT-116 colon, in the experiment with SK-MEL-28 melanoma, in the experiment on SF-268 CNS, in the experiment on NCI-H460 lung, with IGROV1 ovarian and in the experiment on UACC-62 melanoma was above 100 µM each time. Besides, the TGI in the experiment on TK-10 renal, in the experiment with UO-31 renal and in the experiment on CAKI-1 renal was above 100 µM throughout.
Regarding `C=C(C)[C@H](O)C(O)CC(C)[C@@H]1CCC23CC12CCC1[C@@]2(C)CCC(OC(C)=O)C(C)(C)C2CC(OC2OC(COC(C)=O)C(O)C(O)C2O)[C@]13C` (stereo partly specified), the TGI in the experiment on HCT-116 colon worked out at 9.27 µM; in the experiment on SK-MEL-28 melanoma it was 13.3 µM; with SF-268 CNS, 11 µM; in the experiment on NCI-H460 lung, 11.5 µM; with IGROV1 ovarian, 9.54 µM; with UACC-62 melanoma, 9.4 µM. Besides, the TGI is 12.5 µM with TK-10 renal, 14.5 µM in the experiment with UO-31 renal and 12.1 µM in the experiment with CAKI-1 renal.
Take `S=C(Nc1ccccc1)N(Cc1ccccc1)c1ccccc1`: the TGI is above 100 µM in the experiment with HCT-116 colon; 78.4 µM with SK-MEL-28 melanoma; above 100 µM in the experiment with SF-268 CNS; above 100 µM in the experiment on NCI-H460 lung; above 100 µM in the experiment with IGROV1 ovarian; 70.7 µM in the experiment on UACC-62 melanoma. Also, the TGI in the experiment with TK-10 renal is 80.3 µM; with UO-31 renal it was above 100 µM; with CAKI-1 renal, 90.3 µM.
For the molecule `O=C1CCCC1NC(=O)C(F)(F)F` (stereo unspecified), the TGI in the experiment with HCT-116 colon, in the experiment with SK-MEL-28 melanoma, in the experiment with SF-268 CNS, in the experiment on NCI-H460 lung, in the experiment with IGROV1 ovarian and in the experiment with UACC-62 melanoma was above 100 µM throughout. In addition, the TGI in the experiment on TK-10 renal, in the experiment on UO-31 renal and in the experiment with CAKI-1 renal was above 100 µM each time.
As to `COC(=O)C(CC(=O)Nc1ccc(Cl)c(Cl)c1)C(=O)C(=O)NC1C2CC3CC(C2)CC1C3` (stereo unspecified), the TGI in the experiment with HCT-116 colon, in the experiment on SK-MEL-28 melanoma, with SF-268 CNS, in the experiment with NCI-H460 lung, in the experiment on IGROV1 ovarian and in the experiment on UACC-62 melanoma was above 100 µM each time. For the same molecule, the TGI in the experiment on TK-10 renal, with UO-31 renal and with CAKI-1 renal was above 100 µM each time.
Turning to `O=C1C[C@H]2CC3(CC[C@H]2CN1)OCCO3`, the TGI with HCT-116 colon, in the experiment on SK-MEL-28 melanoma, in the experiment with SF-268 CNS, in the experiment on NCI-H460 lung, in the experiment with IGROV1 ovarian and in the experiment on UACC-62 melanoma was above 100 µM throughout. Further, the TGI in the experiment on TK-10 renal, with UO-31 renal and in the experiment on CAKI-1 renal was above 100 µM throughout.
Consider `Cc1ccc(N2C(=O)/C(=C/c3ccc(N(CCC#N)CCC#N)cc3C)N=C2c2cc([N+](=O)[O-])ccc2Cl)cc1`, for which the TGI with HCT-116 colon, in the experiment on SK-MEL-28 melanoma, in the experiment on SF-268 CNS, with NCI-H460 lung, in the experiment with IGROV1 ovarian and in the experiment on UACC-62 melanoma was above 100 µM throughout. The TGI in the experiment with TK-10 renal, in the experiment with UO-31 renal and with CAKI-1 renal was above 100 µM in each case.
As to `C[CH2][Sn]([Cl])([Cl])[CH2]C`, the GI50 with HCT-116 colon is above 63.4 µM; in the experiment with SK-MEL-28 melanoma, 19.8 µM; in the experiment with SF-268 CNS, 29.7 µM; in the experiment on NCI-H460 lung it was above 64.3 µM; in the experiment on IGROV1 ovarian it was above 100 µM; in the experiment on UACC-62 melanoma, 22 µM. For the same molecule, the figures for the GI50 in the experiment with TK-10 renal, in the experiment on UO-31 renal and in the experiment on CAKI-1 renal were 18.3 µM, 97.8 µM and 8.91 µM, respectively. Besides, the TGI with HCT-116 colon is above 100 µM; with SK-MEL-28 melanoma, 36.3 µM; in the experiment on SF-268 CNS it was 79.1 µM; in the experiment on NCI-H460 lung, above 100 µM; in the experiment with IGROV1 ovarian, above 100 µM; with UACC-62 melanoma it was 47.8 µM. For the same molecule, the TGI with TK-10 renal was 32.4 µM; in the experiment with UO-31 renal it was above 100 µM; in the experiment on CAKI-1 renal, 25.8 µM.
